Experimental data taken from US7935806B2, “Method for performing in vitro diagnosis using gene regulation mechanisms and corresponding diagnosis kit” (Unisensor S.A., priority 2001, dated 2011).

Tests used:
avidin = biological target: T1, avidin (Gallus gallus, UniProt P02701); conditions: non-covalent; cited from earlier work
T1 construct: The avidin is a tetrameric glycoprotein isolated from egg-white; from tissue; host or cells: egg-white

tetR of class C = biological target: T2, tetR of class C (Escherichia coli, UniProt P03039); assay type: binding, E. Coli C600; conditions: 25 ppb in honey, read with the naked eye
T2 construct: two primers have been selected for amplification by PCR of the gene which has then been cloned in a pet12a-expression plasmid; made in house; host or cells: E. coli HB101 carrying pT7po123; expression plasmid pet12a
Protocol: In the example showing the measurement of the concentration based on samples of honey, one unpurified part of serum obtained above is placed in the presence of one part of tetR receptor obtained above in 1.1.1, 15 parts of A-protein marked by means of particles of colloidal gold of 40 nm and one DO at 500 nm of 10 (available from Unisensor S.A., Liege, Belgium) and 20 parts of lyophilisation buffer (Tris 10 mM, pH 8, BSA 5 mg/ml, sucrose 10 g/l). This mixture is lyophilised for 20 hours.
To 1 gram of honey are added 3 ml of dilution buffer (for 1 litre, 2.73 g of Na2HPO4.2H2O, 1.65 g of citric acid, 7 g of BSA and 2.5 g of Tween-20, pH 5) and the solutin is stirred vigorously so as to obtain a homogeneous solution. 200 μl of this dilution of the sample of honey are then incubated in the presence of the lyophilisate prepared above (see Point 1.1.2.2). After 10 minutes of incubation at ambient temperature (±20° C.), the analysis strip described above at 1.3 is immersed in the solution. The final interpretation is made with the naked eye, after 15 minutes of incubation at ambient temperature.

MetJ = MetJ (Escherichia coli, UniProt P0A8U6); conditions: in the presence of the co-repressor; cited from earlier work
Chain of MetJ (P0A8U6 2-105): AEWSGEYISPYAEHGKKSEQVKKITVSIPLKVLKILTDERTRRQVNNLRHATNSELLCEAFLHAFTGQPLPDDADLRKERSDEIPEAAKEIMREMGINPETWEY

T1 sequence (P02701 25-152): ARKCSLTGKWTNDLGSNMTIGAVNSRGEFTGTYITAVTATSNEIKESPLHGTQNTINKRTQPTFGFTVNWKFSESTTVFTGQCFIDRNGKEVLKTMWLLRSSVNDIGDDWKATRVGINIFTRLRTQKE
T2 sequence (P03039 whole entry): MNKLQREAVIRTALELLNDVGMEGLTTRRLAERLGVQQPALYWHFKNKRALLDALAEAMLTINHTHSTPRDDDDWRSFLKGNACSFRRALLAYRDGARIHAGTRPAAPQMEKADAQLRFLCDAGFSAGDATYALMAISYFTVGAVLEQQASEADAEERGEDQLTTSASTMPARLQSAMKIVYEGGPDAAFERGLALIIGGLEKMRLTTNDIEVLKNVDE

O=C(O)CCCC[C@@H]1SC[C@@H]2NC(=O)N[C@@H]21 [biotin]
affinity of avidin sub-unit for biotin (Ka) (avidin): 10^15 M^−1

CN(C)[C@@H]1C(O)=C(C(N)=O)C(=O)[C@@]2(O)C(O)=C3C(=O)c4c(O)ccc(Cl)c4[C@@H](O)[C@H]3C[C@@H]12 [demedocycline]
test result (test signal lower than control signal = positive) (tetR of class C): positive result

C[S+](CC[C@H](N)C(=O)[O-])C[C@H]1O[C@@H](n2cnc3c(N)ncnc32)[C@H](O)[C@@H]1O (stereo partly drawn) [s-adenosylmethionine]
increase of MetJ affinity for DNA (MetJ): more than 1,000 times
